# Results as given in patent US20140012013A1, “METHOD FOR PRODUCING PYRAZOLE CARBOXYLIC ACID DERIVATIVE” (SHIONOGI & CO., LTD., priority 2011, published 2014).
# Assay: log k′ (degree of lipophilic character) from HPLC retention time under gradient condition
# Assay type: physicochemical
# Settings: XTerra MS C18 5 μm, 2.1×100 mm column; acetonitrile/pH6.8 buffer 5:95~95:5/20 min; flow 0.25 mL/min
# Method: log k′ is a value which means degree of the lipophilic character, and is calculated by the following formula.
# tR: retention time of compound under gradient condition t0: retention time of standard material not retained in column
# XTerra MS C18 5 μm, 2.1×100 mm column (made by Waters) was used for measurement. The elution was a straight line inclination of acetonitrile/pH6.8 buffer (5:95˜95:5/20 min) at flow velocity 0.25 mL/min.
compound,measurement,value
COC(=O)NC12CC3CC(C1)C(NC(=O)c1cnn(/C=C/C(C)(C)NC(C)=O)c1OCC(C)C)C(C3)C2 (centres unmarked) [Compound (XIII-1-2)],log k′,0.886
CC(=O)NCC12CC3CC(C1)C(NC(=O)c1cnn(/C=C/C(C)(C)NC(C)=O)c1OCC(C)C)C(C3)C2 (centres unmarked) [Compound (XIII-1-3)],log k′,0.838
